According to ChEMBL document CHEMBL4138123, “Design, synthesis and biological evaluation of novel pyrazolochalcones as potential modulators of PI3K/Akt/mTOR pathway and inducers of apoptosis in breast cancer cells” (Eur J Med Chem, 2017):

Experiments:
Type in all cases: functional
[1] = test system: KM12; assay: Cytotoxicity against human KM12 cells assessed as cell growth at 10 uM after 48 hrs by sulforhodamine B assay relative to control; conditions: KM12, 48 h, read-out: Activity
[2] = test system: K562; assay: Cytotoxicity against human K562 cells assessed as cell growth at 10 uM after 48 hrs by sulforhodamine B assay relative to control; conditions: K562, 48 h, read-out: Activity
[3] = test system: HCC 2998; assay: Cytotoxicity against human HCC2998 cells assessed as cell growth at 100 uM after 48 hrs by sulforhodamine B assay relative to control; conditions: HCC 2998, 48 h, read-out: Activity
[4] = test system: NCI-H23; assay: Cytotoxicity against human NCI-H23 cells assessed as cell growth at 1 uM after 48 hrs by sulforhodamine B assay relative to control; conditions: NCI-H23, 48 h, read-out: Activity
[5] = test system: UACC-62; assay: Cytotoxicity against human UACC62 cells assessed as cell growth at 0.01 uM after 48 hrs by sulforhodamine B assay relative to control; conditions: UACC-62, 48 h, read-out: Activity
[6] = test system: MDA-MB-468; assay: Cytotoxicity against human MDA-MB-468 cells assessed as cell growth at 100 uM after 48 hrs by sulforhodamine B assay relative to control; conditions: MDA-MB-468, 48 h, read-out: Activity
[7] = test system: UO-31; assay: Cytotoxicity against human UO31 cells assessed as cell growth at 1 uM after 48 hrs by sulforhodamine B assay relative to control; conditions: UO-31, 48 h, read-out: Activity
[8] = test system: SK-MEL-28; assay: Cytotoxicity against human SK-MEL-28 cells assessed as cell growth at 1 uM after 48 hrs by sulforhodamine B assay relative to control; conditions: SK-MEL-28, 48 h, read-out: Activity
[9] = test system: 786-0; assay: Cytotoxicity against human 786-0 cells assessed as cell growth at 1 uM after 48 hrs by sulforhodamine B assay relative to control; conditions: 786-0, 48 h, read-out: Activity
[10] = test system: PC-3; assay: Cytotoxicity against human PC3 cells assessed as cell growth at 10 uM after 48 hrs by sulforhodamine B assay relative to control; conditions: PC-3, 48 h, read-out: Activity
[11] = test system: MDA-MB-468; assay: Cytotoxicity against human MDA-MB-468 cells assessed as cell growth at 0.1 uM after 48 hrs by sulforhodamine B assay relative to control; conditions: MDA-MB-468, 48 h, read-out: Activity
[12] = test system: OVCAR-8; assay: Cytotoxicity against human OVCAR8 cells assessed as cell growth at 100 uM after 48 hrs by sulforhodamine B assay relative to control; conditions: OVCAR-8, 48 h, read-out: Activity
[13] = test system: HT-29; assay: Cytotoxicity against human HT-29 cells assessed as cell growth at 1 uM after 48 hrs by sulforhodamine B assay relative to control; conditions: HT-29, 48 h, read-out: Activity
[14] = test system: Malme-3M; assay: Cytotoxicity against human MALME-3M cells assessed as cell growth at 1 uM after 48 hrs by sulforhodamine B assay relative to control; conditions: read-out: Activity
[15] = test system: MDA-MB-435; assay: Cytotoxicity against human MDA-MB-435 cells assessed as cell growth at 10 uM after 48 hrs by sulforhodamine B assay relative to control; conditions: MDA-MB-435, 48 h, read-out: Activity
[16] = test system: CCRF-CEM; assay: Cytotoxicity against human CCRF-CEM cells assessed as cell growth at 1 uM after 48 hrs by sulforhodamine B assay relative to control; conditions: read-out: Activity
[17] = test system: HCT-116; assay: Cytotoxicity against human HCT116 cells assessed as cell growth at 0.01 uM after 48 hrs by sulforhodamine B assay relative to control; conditions: HCT-116, 48 h, read-out: Activity
[18] = test system: NCI-H522; assay: Cytotoxicity against human NCI-H522 cells assessed as growth inhibition after 48 hrs by sulforhodamine B assay; conditions: NCI-H522, 48 h
[19] = test system: OVCAR-3; assay: Cytotoxicity against human OVCAR3 cells assessed as cell growth at 10 uM after 48 hrs by sulforhodamine B assay relative to control; conditions: OVCAR-3, 48 h, read-out: Activity
[20] = test system: K562; assay: Cytotoxicity against human K562 cells assessed as cell growth at 100 uM after 48 hrs by sulforhodamine B assay relative to control; conditions: K562, 48 h, read-out: Activity
[21] = test system: HCC 2998; assay: Cytotoxicity against human HCC2998 cells assessed as cell growth at 0.01 uM after 48 hrs by sulforhodamine B assay relative to control; conditions: HCC 2998, 48 h, read-out: Activity
[22] = test system: RXF 393; assay: Cytotoxicity against human RXF393 cells assessed as cell growth at 10 uM after 48 hrs by sulforhodamine B assay relative to control; conditions: RXF 393, 48 h, read-out: Activity
[23] = test system: Hs-578T; assay: Cytotoxicity against human Hs 578T cells assessed as growth inhibition after 48 hrs by sulforhodamine B assay
[24] = test system: OVCAR-8; assay: Cytotoxicity against human OVCAR8 cells assessed as cell growth at 10 uM after 48 hrs by sulforhodamine B assay relative to control; conditions: OVCAR-8, 48 h, read-out: Activity
[25] = test system: PC-3; assay: Cytotoxicity against human PC3 cells assessed as growth inhibition after 48 hrs by sulforhodamine B assay; conditions: PC-3, 48 h
[26] = test system: SN12C; assay: Cytotoxicity against human SN12C cells assessed as cell growth at 0.1 uM after 48 hrs by sulforhodamine B assay relative to control; conditions: read-out: Activity
[27] = test system: HT-29; assay: Cytotoxicity against human HT-29 cells assessed as cell growth at 100 uM after 48 hrs by sulforhodamine B assay relative to control; conditions: HT-29, 48 h, read-out: Activity
[28] = test system: UACC-62; assay: Cytotoxicity against human UACC62 cells assessed as cell growth at 100 uM after 48 hrs by sulforhodamine B assay relative to control; conditions: UACC-62, 48 h, read-out: Activity
[29] = test system: SK-OV-3; assay: Cytotoxicity against human SKOV3 cells assessed as cell growth at 0.1 uM after 48 hrs by sulforhodamine B assay relative to control; conditions: SK-OV-3, 48 h, read-out: Activity
[30] = test system: BT-549; assay: Cytotoxicity against human BT549 cells assessed as cell growth at 0.01 uM after 48 hrs by sulforhodamine B assay relative to control; conditions: BT-549, 48 h, read-out: Activity
[31] = test system: MDA-MB-435; assay: Cytotoxicity against human MDA-MB-435 cells assessed as cell growth at 1 uM after 48 hrs by sulforhodamine B assay relative to control; conditions: MDA-MB-435, 48 h, read-out: Activity
[32] = test system: Malme-3M; assay: Cytotoxicity against human MALME-3M cells assessed as cell growth at 10 uM after 48 hrs by sulforhodamine B assay relative to control; conditions: read-out: Activity
[33] = test system: SF-539; assay: Cytotoxicity against human SF539 cells assessed as cell growth at 0.1 uM after 48 hrs by sulforhodamine B assay relative to control; conditions: SF-539, 48 h, read-out: Activity
[34] = test system: NCI-H460; assay: Cytotoxicity against human NCI-H460 cells assessed as cell growth at 0.1 uM after 48 hrs by sulforhodamine B assay relative to control; conditions: NCI-H460, 48 h, read-out: Activity
[35] = test system: SNB-19; assay: Cytotoxicity against human SNB19 cells assessed as cell growth at 10 uM after 48 hrs by sulforhodamine B assay relative to control; conditions: SNB-19, 48 h, read-out: Activity
[36] = test system: NCI/ADR-RES; assay: Cytotoxicity against human NCI/ADR-RES cells assessed as growth inhibition after 48 hrs by sulforhodamine B assay

COc1cc(C(=O)/C=C/c2cc(-c3ccc4c(c3)OCO4)n[nH]2)cc(OC)c1OC
growth at 10 µM [1]: -66% | growth at 10 µM [2]: 3% | growth at 100 µM [3]: -95% | growth at 1 µM [4]: 92% | growth at 0.01 µM [5]: 96% | growth at 100 µM [6]: -80% | growth at 1 µM [7]: 71% | growth at 1 µM [8]: 92% | growth at 1 µM [9]: 98% | growth at 10 µM [10]: -46% | growth at 0.1 µM [11]: 82% | growth at 100 µM [12]: -92% | growth at 1 µM [13]: 96% | growth at 1 µM [14]: 83% | growth at 10 µM [15]: -29% | growth at 1 µM [16]: 83% | growth at 0.01 µM [17]: 101% | GI50 [18]: 1.59 µM | LC50 [18]: 7.3 µM | TGI [18]: 3.41 µM | growth at 10 µM [19]: -73% | growth at 100 µM [20]: 5% | growth at 0.01 µM [21]: 99% | growth at 10 µM [22]: -76% | GI50 [23]: 3.14 µM | LC50 [23]: > 100 µM | TGI [23]: 20.5 µM | growth at 10 µM [24]: -23% | GI50 [25]: 1.51 µM | LC50 [25]: 12.4 µM | TGI [25]: 4.02 µM | growth at 0.1 µM [26]: 96% | growth at 100 µM [27]: -45% | growth at 100 µM [28]: -96% | growth at 0.1 µM [29]: 105% | growth at 0.01 µM [30]: 97% | growth at 1 µM [31]: 94% | growth at 10 µM [32]: -41% | growth at 0.1 µM [33]: 97% | growth at 0.1 µM [34]: 100% | growth at 10 µM [35]: 7% | GI50 [36]: 2.99 µM | LC50 [36]: > 100 µM | TGI [36]: 12.3 µM

COc1ccc(C(=O)/C=C/c2cc(-c3cc(OC)c(OC)c(OC)c3)n[nH]2)cc1
growth at 10 µM [1]: -88% | growth at 10 µM [2]: -17% | growth at 100 µM [3]: -82% | growth at 1 µM [4]: 95% | growth at 0.01 µM [5]: 100% | growth at 100 µM [6]: -78% | growth at 1 µM [7]: 77% | growth at 1 µM [8]: 101% | growth at 1 µM [9]: 94% | growth at 10 µM [10]: -68% | growth at 0.1 µM [11]: 88% | growth at 100 µM [12]: -16% | growth at 1 µM [13]: 95% | growth at 1 µM [14]: 93% | growth at 10 µM [15]: -30% | growth at 1 µM [16]: 62% | growth at 0.01 µM [17]: 100% | LC50 [18]: 6.97 µM | TGI [18]: 3.2 µM | growth at 10 µM [19]: -72% | growth at 100 µM [20]: 1% | growth at 0.01 µM [21]: 101% | growth at 10 µM [22]: -97% | LC50 [23]: > 100 µM | TGI [23]: > 100 µM | growth at 10 µM [24]: -8% | growth at 0.1 µM [26]: 96% | growth at 100 µM [27]: -19% | growth at 100 µM [28]: -48% | growth at 0.1 µM [29]: 99% | growth at 0.01 µM [30]: 97% | growth at 1 µM [31]: 92% | growth at 10 µM [32]: -66% | growth at 0.1 µM [33]: 99% | growth at 0.1 µM [34]: 102% | growth at 10 µM [35]: -85% | LC50 [36]: > 100 µM | TGI [36]: 9.85 µM
